Key:
Assay type in all cases: in vivo
[1] = tested on: barnyardgrass (Echinochloa crus-galli); test: Test A preemergence, barnyardgrass; details: 0 to 100 scale (0 no effect, 100 complete control)
In short: (§1)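 Seeds sown in loam soil–sand blend; test chemicals in non-phytotoxic solvent mixture with surfactant applied preemergence as directed soil spray, or postemergence to plants 2–10 cm tall at one- to two-leaf stage. Greenhouse, ~10 days; visual injury rated against untreated controls, 0 (no effect) to 100 (complete control).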

[2] = tested on: large crabgrass (Digitaria sanguinalis); test: Test A preemergence, large crabgrass; details: 0 to 100 scale (0 no effect, 100 complete control)
In short: as §1

[3] = tested on: giant foxtail (Setaria faberi); test: Test A preemergence, giant foxtail; details: 0 to 100 scale (0 no effect, 100 complete control)
In short: as §1

[4] = tested on: morningglory (Ipomoea spp.); test: Test A preemergence, morningglory; details: 0 to 100 scale (0 no effect, 100 complete control)
In short: as §1

[5] = tested on: pigweed (Amaranthus retroflexus); test: Test A preemergence, pigweed; details: 0 to 100 scale (0 no effect, 100 complete control)
In short: as §1

[6] = tested on: velvetleaf (Abutilon theophrasti); test: Test A preemergence, velvetleaf; details: 0 to 100 scale (0 no effect, 100 complete control)
In short: as §1

[7] = tested on: wheat (Triticum aestivum); test: Test A preemergence, wheat; details: 0 to 100 scale (0 no effect, 100 complete control)
In short: as §1

corn (Zea mays) [8] = test: Test A preemergence, corn; details: 0 to 100 scale (0 no effect, 100 complete control)
In short: as §1

[9] = tested on: barnyardgrass (Echinochloa crus-galli); test: Test A postemergence, barnyardgrass; details: 0 to 100 scale (0 no effect, 100 complete control)
In short: as §1

[10] = tested on: large crabgrass (Digitaria sanguinalis); test: Test A postemergence, large crabgrass; details: 0 to 100 scale (0 no effect, 100 complete control)
In short: as §1

[11] = tested on: giant foxtail (Setaria faberi); test: Test A postemergence, giant foxtail; details: 0 to 100 scale (0 no effect, 100 complete control)
In short: as §1

[12] = tested on: morningglory (Ipomoea spp.); test: Test A postemergence, morningglory; details: 0 to 100 scale (0 no effect, 100 complete control)
In short: as §1

[13] = tested on: pigweed (Amaranthus retroflexus); test: Test A postemergence, pigweed; details: 0 to 100 scale (0 no effect, 100 complete control)
In short: as §1

[14] = tested on: velvetleaf (Abutilon theophrasti); test: Test A postemergence, velvetleaf; details: 0 to 100 scale (0 no effect, 100 complete control)
In short: as §1

[15] = tested on: wheat (Triticum aestivum); test: Test A postemergence, wheat; details: 0 to 100 scale (0 no effect, 100 complete control)
In short: as §1

corn (Zea mays) [16] = test: Test A postemergence, corn; details: 0 to 100 scale (0 no effect, 100 complete control)
In short: as §1

rice (Oryza sativa) = test: Test B flooded paddy test, rice; details: Flood, scale 0 to 100
In short: (§2)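 Paddy-water application to 2-leaf plants in pots held under 3 cm of flooding; response is a 0–100 visual control rating against controls after 13 to 15 days, and a dash marks a missing result.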

[17] = tested on: umbrella sedge (Cyperus difformis); test: Test B flooded paddy test, umbrella sedge; details: Flood, scale 0 to 100
In short: as §2

[18] = tested on: ducksalad (Heteranthera limosa); test: Test B flooded paddy test, ducksalad; details: Flood, scale 0 to 100
In short: as §2

[19] = tested on: barnyardgrass (Echinochloa crus-galli); test: Test B flooded paddy test, barnyardgrass; details: Flood
In short: as §2

[20] = 250 g ai/ha, scale 0 to 100 (0 no effect, 100 complete control)

SMILES: CC1(C)CC([S+]([O-])Cc2c(C(F)(F)C(F)(F)F)nc3n(c2=O)CCCS3)=NO1 (centres unmarked) [Compound 40]
- Plant response rating, Barnyardgrass ([1]; 125 g ai/ha): 0
- Plant response rating, Barnyardgrass ([1]; 500 g ai/ha): 60
- Plant response rating, Crabgrass, Large ([2]; 125 g ai/ha): 0
- Plant response rating, Crabgrass, Large ([2]; 500 g ai/ha): 70
- Plant response rating, Foxtail, Giant ([3]; 125 g ai/ha): 0
- Plant response rating, Foxtail, Giant ([3]; 500 g ai/ha): 80
- Plant response rating, Morningglory ([4]; 125 g ai/ha): 0
- Plant response rating, Morningglory ([4]; 500 g ai/ha): 0
- Plant response rating, Pigweed ([5]; 125 g ai/ha): 0
- Plant response rating, Pigweed ([5]; 500 g ai/ha): 0
- Plant response rating, Velvetleaf ([6]; 125 g ai/ha): 0
- Plant response rating, Velvetleaf ([6]; 500 g ai/ha): 0
- Plant response rating, Wheat ([7]; 125 g ai/ha): 0
- Plant response rating, Wheat ([7]; 500 g ai/ha): 0
- Plant response rating, Corn (corn (Zea mays) [8]; 125 g ai/ha): 0
- Plant response rating, Corn (corn (Zea mays) [8]; 500 g ai/ha): 0
- Plant response rating, Barnyardgrass ([9]; 125 g ai/ha): 10
- Plant response rating, Barnyardgrass ([9]; 500 g ai/ha): 70
- Plant response rating, Crabgrass, Large ([10]; 125 g ai/ha): 0
- Plant response rating, Crabgrass, Large ([10]; 500 g ai/ha): 40
- Plant response rating, Foxtail, Giant ([11]; 125 g ai/ha): 0
- Plant response rating, Foxtail, Giant ([11]; 500 g ai/ha): 50
- Plant response rating, Morningglory ([12]; 125 g ai/ha): 0
- Plant response rating, Morningglory ([12]; 500 g ai/ha): 10
- Plant response rating, Pigweed ([13]; 125 g ai/ha): 0
- Plant response rating, Pigweed ([13]; 500 g ai/ha): 0
- Plant response rating, Velvetleaf ([14]; 125 g ai/ha): 0
- Plant response rating, Velvetleaf ([14]; 500 g ai/ha): 0
- Plant response rating, Wheat ([15]; 125 g ai/ha): 0
- Plant response rating, Wheat ([15]; 500 g ai/ha): 50
- Plant response rating, Corn (corn (Zea mays) [16]; 125 g ai/ha): 0
- Plant response rating, Corn (corn (Zea mays) [16]; 500 g ai/ha): 20
- Plant response rating, Rice (rice (Oryza sativa); 31 g ai/ha): 0
- Plant response rating, Rice (rice (Oryza sativa); 62 g ai/ha): 0
- Plant response rating, Rice (rice (Oryza sativa); 125 g ai/ha): 0
- Plant response rating, Rice (rice (Oryza sativa); 250 g ai/ha): 0
- Plant response rating, Sedge, Umbrella ([17]; 31 g ai/ha): 0
- Plant response rating, Sedge, Umbrella ([17]; 62 g ai/ha): 0
- Plant response rating, Sedge, Umbrella ([17]; 125 g ai/ha): 0
- Plant response rating, Sedge, Umbrella ([17]; 250 g ai/ha): 0
- Plant response rating, Ducksalad ([18]; 31 g ai/ha): 0
- Plant response rating, Ducksalad ([18]; 62 g ai/ha): 0
- Plant response rating, Ducksalad ([18]; 125 g ai/ha): 0
- Plant response rating, Ducksalad ([18]; 250 g ai/ha): 0
- Plant response rating, Barnyardgrass ([19]; 31 g ai/ha, scale 0 to 100): 0
- Plant response rating, Barnyardgrass ([19]; 62 g ai/ha, scale 0 to 100): 0
- Plant response rating, Barnyardgrass ([19]; 125 g ai/ha, scale 0 to 100): 0
- Plant response rating, Barnyardgrass [19, 20]: 0

SMILES: CC1(C)CC([S+]([O-])Cc2c(C(F)(F)C(F)(F)F)nc3n(c2=O)CCS3)=NO1 (centres unmarked) [Compound 41]
- Plant response rating, Barnyardgrass ([1]; 125 g ai/ha): 0
- Plant response rating, Barnyardgrass ([1]; 500 g ai/ha): 60
- Plant response rating, Crabgrass, Large ([2]; 125 g ai/ha): 0
- Plant response rating, Crabgrass, Large ([2]; 500 g ai/ha): 80
- Plant response rating, Foxtail, Giant ([3]; 125 g ai/ha): 0
- Plant response rating, Foxtail, Giant ([3]; 500 g ai/ha): 80
- Plant response rating, Morningglory ([4]; 500 g ai/ha): 0
- Plant response rating, Pigweed ([5]; 125 g ai/ha): 0
- Plant response rating, Pigweed ([5]; 500 g ai/ha): 0
- Plant response rating, Velvetleaf ([6]; 125 g ai/ha): 0
- Plant response rating, Velvetleaf ([6]; 500 g ai/ha): 0
- Plant response rating, Wheat ([7]; 125 g ai/ha): 0
- Plant response rating, Wheat ([7]; 500 g ai/ha): 0
- Plant response rating, Corn (corn (Zea mays) [8]; 125 g ai/ha): 0
- Plant response rating, Corn (corn (Zea mays) [8]; 500 g ai/ha): 0
- Plant response rating, Barnyardgrass ([9]; 125 g ai/ha): 30
- Plant response rating, Barnyardgrass ([9]; 500 g ai/ha): 70
- Plant response rating, Crabgrass, Large ([10]; 125 g ai/ha): 0
- Plant response rating, Crabgrass, Large ([10]; 500 g ai/ha): 50
- Plant response rating, Foxtail, Giant ([11]; 125 g ai/ha): 10
- Plant response rating, Foxtail, Giant ([11]; 500 g ai/ha): 60
- Plant response rating, Morningglory ([12]; 125 g ai/ha): 0
- Plant response rating, Morningglory ([12]; 500 g ai/ha): 10
- Plant response rating, Pigweed ([13]; 125 g ai/ha): 0
- Plant response rating, Pigweed ([13]; 500 g ai/ha): 0
- Plant response rating, Velvetleaf ([14]; 125 g ai/ha): 0
- Plant response rating, Velvetleaf ([14]; 500 g ai/ha): 0
- Plant response rating, Wheat ([15]; 125 g ai/ha): 0
- Plant response rating, Wheat ([15]; 500 g ai/ha): 40
- Plant response rating, Corn (corn (Zea mays) [16]; 125 g ai/ha): 0
- Plant response rating, Corn (corn (Zea mays) [16]; 500 g ai/ha): 40
- Plant response rating, Rice (rice (Oryza sativa); 31 g ai/ha): 0
- Plant response rating, Rice (rice (Oryza sativa); 62 g ai/ha): 0
- Plant response rating, Rice (rice (Oryza sativa); 125 g ai/ha): 0
- Plant response rating, Rice (rice (Oryza sativa); 250 g ai/ha): 0
- Plant response rating, Sedge, Umbrella ([17]; 31 g ai/ha): 0
- Plant response rating, Sedge, Umbrella ([17]; 62 g ai/ha): 0
- Plant response rating, Sedge, Umbrella ([17]; 125 g ai/ha): 0
- Plant response rating, Sedge, Umbrella ([17]; 250 g ai/ha): 0
- Plant response rating, Ducksalad ([18]; 31 g ai/ha): 0
- Plant response rating, Ducksalad ([18]; 62 g ai/ha): 0
- Plant response rating, Ducksalad ([18]; 125 g ai/ha): 0
- Plant response rating, Ducksalad ([18]; 250 g ai/ha): 0
- Plant response rating, Barnyardgrass ([19]; 31 g ai/ha, scale 0 to 100): 0
- Plant response rating, Barnyardgrass ([19]; 62 g ai/ha, scale 0 to 100): 0
- Plant response rating, Barnyardgrass ([19]; 125 g ai/ha, scale 0 to 100): 0
- Plant response rating, Barnyardgrass [19, 20]: 0

Reference: patent US20100099561A1, “HETEROBICYCLIC ALKYLTHIO-BRIDGED ISOXAZOLINES” (E.I. DU PONT DE NEMOURS AND COMPANY, priority 2008, published 2010)
